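Briefly, cells in 96-well plates were exposed to five compound concentrations for 48 h, and endpoints were estimated by linear interpolation. GI50 = concentration required for 50% inhibition of growth.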 The source made the active and inactive calls. No stated cut-off is given here; in the data, active = GI50 up to about 1.1 µM and inactive = higher.
Legend:
Test in all cases: NCI anticancer screen, dose series, 48 h
[1] = test system: NCI-H460
[2] = test system: HCC 2998
[3] = test system: SK-MEL-28
[4] = test system: MOLT-4
[5] = test system: OVCAR-5
[6] = test system: PC-3
[7] = test system: OVCAR-3
[8] = test system: RXF 393
[9] = test system: CCRF-CEM
[10] = test system: SF-295
[11] = test system: UACC-62
[12] = test system: EKVX
[13] = test system: U-251
[14] = test system: LOX IMVI
[15] = test system: SN12C
[16] = test system: SW-620
[17] = test system: OVCAR-8
[18] = test system: NCI-H522
[19] = test system: NCI/ADR-RES
[20] = test system: HOP-92

## COc1ccc2c(c1)c(=O)c1c(NCCCN(C)CCCNc3ccc4c(=O)n(CCN(C)C)c(=O)n5c6ccc(OC)cc6c(=O)c3c45)ccc3c(=O)n(CCN(C)C)c(=O)n2c31
[1]
  GI50: < 0.01 µM (active)
[2]
  GI50: < 0.01 µM (active)
[3]
  GI50: 0.415 µM (active)
[4]
  GI50: < 0.01 µM (active)
[5]
  GI50: 0.29 µM (active)
[6]
  GI50: < 0.0147 µM (active)
[7]
  GI50: 0.138 µM (active)
[8]
  GI50: < 0.0202 µM (active)
[9]
  GI50: < 0.01 µM (active)
[10]
  GI50: < 0.0169 µM (active)
[11]
  GI50: 0.305 µM (active)
[12]
  GI50: 0.188 µM (active)
[13]
  GI50: < 0.01 µM (active)
[14]
  GI50: < 0.01 µM (active)
[15]
  GI50: < 0.01 µM (active)
[16]
  GI50: < 0.01 µM (active)
[17]
  GI50: < 0.01 µM (active)
[18]
  GI50: < 0.0193 µM (active)

## CCOc1cc(NC(C)=O)ccc1C(=O)NN1C(=O)C(Oc2ccccc2)C1c1ccc(O)c(OC)c1 (stereo not drawn)
[3]
  GI50: 79.4 µM (inactive)
[19]
  GI50: 37.4 µM (inactive)
[4]
  GI50: 12.9 µM (inactive)
[5]
  GI50: > 100 µM (inactive)
[6]
  GI50: 35.2 µM (inactive)
[7]
  GI50: 41.5 µM (inactive)
[8]
  GI50: 24.3 µM (inactive)
[9]
  GI50: 22.5 µM (inactive)
[10]
  GI50: 66.4 µM (inactive)
[12]
  GI50: 35.3 µM (inactive)
[13]
  GI50: 48.9 µM (inactive)
[14]
  GI50: 29.8 µM (inactive)
[15]
  GI50: 28 µM (inactive)
[16]
  GI50: 77.4 µM (inactive)
[20]
  GI50: 6.04 µM (inactive)
[17]
  GI50: 22.1 µM (inactive)

## Cc1ccc(NC(=O)C(=O)C2C(=O)NC(=O)NC2=O)c(C)c1
[1]
  GI50: > 100 µM (inactive)
[2]
  GI50: > 100 µM (inactive)
[3]
  GI50: > 100 µM (inactive)
[4]
  GI50: > 100 µM (inactive)
[5]
  GI50: > 100 µM (inactive)
[7]
  GI50: > 100 µM (inactive)
[8]
  GI50: > 100 µM (inactive)
[9]
  GI50: > 100 µM (inactive)
[10]
  GI50: > 100 µM (inactive)
[11]
  GI50: > 100 µM (inactive)
[12]
  GI50: > 100 µM (inactive)
[13]
  GI50: > 100 µM (inactive)
[14]
  GI50: > 100 µM (inactive)
[15]
  GI50: 14.9 µM (inactive)
[16]
  GI50: > 100 µM (inactive)
[20]
  GI50: > 100 µM (inactive)
[17]
  GI50: > 100 µM (inactive)
[18]
  GI50: > 100 µM (inactive)

## [O-][n+]1c2ccccc2[n+]([O-])c2ccccc21
[1]
  GI50: 30.1 µM (inactive)
[3]
  GI50: > 100 µM (inactive)
[19]
  GI50: > 100 µM (inactive)
[4]
  GI50: 2.74 µM (inactive)
[5]
  GI50: > 100 µM (inactive)
[6]
  GI50: > 100 µM (inactive)
[9]
  GI50: 4.32 µM (inactive)
[10]
  GI50: > 100 µM (inactive)
[11]
  GI50: > 100 µM (inactive)
[12]
  GI50: > 100 µM (inactive)
[13]
  GI50: > 100 µM (inactive)
[14]
  GI50: > 100 µM (inactive)
[15]
  GI50: > 100 µM (inactive)
[16]
  GI50: > 100 µM (inactive)
[17]
  GI50: 86.3 µM (inactive)
[18]
  GI50: > 100 µM (inactive)

## Cc1nc(N)sc1C(=O)/C=C/c1ccc([N+](=O)[O-])cc1
[1]
  GI50: > 100 µM (inactive)
[2]
  GI50: > 100 µM (inactive)
[3]
  GI50: > 100 µM (inactive)
[4]
  GI50: > 100 µM (inactive)
[5]
  GI50: > 100 µM (inactive)
[7]
  GI50: > 100 µM (inactive)
[8]
  GI50: > 100 µM (inactive)
[9]
  GI50: > 100 µM (inactive)
[10]
  GI50: > 100 µM (inactive)
[11]
  GI50: > 100 µM (inactive)
[12]
  GI50: > 100 µM (inactive)
[13]
  GI50: > 100 µM (inactive)
[14]
  GI50: > 100 µM (inactive)
[15]
  GI50: > 100 µM (inactive)
[16]
  GI50: > 100 µM (inactive)
[20]
  GI50: > 100 µM (inactive)
[17]
  GI50: > 100 µM (inactive)
[18]
  GI50: > 100 µM (inactive)

## CCOC(=O)C1(C(=O)OCC)C(C(C)(C)C)=C(C)c2ccccc21
[1]
  GI50: 11.9 µM (inactive)
[2]
  GI50: 16 µM (inactive)
[3]
  GI50: 12.5 µM (inactive)
[4]
  GI50: 29.9 µM (inactive)
[5]
  GI50: 14.4 µM (inactive)
[7]
  GI50: 11.9 µM (inactive)
[8]
  GI50: 13.5 µM (inactive)
[9]
  GI50: 13.1 µM (inactive)
[10]
  GI50: 11.7 µM (inactive)
[11]
  GI50: 12.9 µM (inactive)
[12]
  GI50: 20.1 µM (inactive)
[13]
  GI50: 15.3 µM (inactive)
[14]
  GI50: 12.3 µM (inactive)
[15]
  GI50: 15.3 µM (inactive)
[16]
  GI50: 15.3 µM (inactive)
[20]
  GI50: 3.4 µM (inactive)
[17]
  GI50: 20.6 µM (inactive)
[18]
  GI50: 10.1 µM (inactive)

## Cc1cc2[nH]c3[nH]c(=O)[nH]c(=O)c3c2cc1C
[2]
  GI50: > 100 µM (inactive)
[19]
  GI50: > 100 µM (inactive)
[5]
  GI50: > 100 µM (inactive)
[8]
  GI50: > 100 µM (inactive)
[9]
  GI50: > 100 µM (inactive)
[10]
  GI50: > 100 µM (inactive)
[11]
  GI50: 97.1 µM (inactive)
[12]
  GI50: 20.3 µM (inactive)
[14]
  GI50: > 100 µM (inactive)
[15]
  GI50: > 100 µM (inactive)
[16]
  GI50: > 100 µM (inactive)
[20]
  GI50: > 100 µM (inactive)
[17]
  GI50: > 100 µM (inactive)
[18]
  GI50: > 100 µM (inactive)

## N#CC(NNC(=O)c1c(Cl)c(Cl)c(Cl)c(Cl)c1-c1nc2cc(C(=O)c3ccccc3)ccc2[nH]1)c1cccc(Oc2ccccc2)c1 (stereo not drawn)
[3]
  GI50: 24.3 µM (inactive)
[19]
  GI50: 19 µM (inactive)
[4]
  GI50: 24.3 µM (inactive)
[5]
  GI50: 28.7 µM (inactive)
[6]
  GI50: 18.8 µM (inactive)
[7]
  GI50: 28.1 µM (inactive)
[8]
  GI50: 16.9 µM (inactive)
[9]
  GI50: 15.6 µM (inactive)
[10]
  GI50: 28.5 µM (inactive)
[12]
  GI50: 15.8 µM (inactive)
[13]
  GI50: 23.4 µM (inactive)
[14]
  GI50: 37.8 µM (inactive)
[15]
  GI50: 23.9 µM (inactive)
[16]
  GI50: 27.7 µM (inactive)
[20]
  GI50: 17.5 µM (inactive)
[17]
  GI50: 41.6 µM (inactive)

## CCOC(=O)C1(C(=O)OCC)Nc2cccnc2N(C)N1
[1]
  GI50: > 100 µM (inactive)
[3]
  GI50: 21.9 µM (inactive)
[19]
  GI50: 20 µM (inactive)
[4]
  GI50: 12.4 µM (inactive)
[6]
  GI50: 22.8 µM (inactive)
[7]
  GI50: 20.5 µM (inactive)
[8]
  GI50: 18 µM (inactive)
[9]
  GI50: 18.5 µM (inactive)
[10]
  GI50: > 100 µM (inactive)
[11]
  GI50: 18 µM (inactive)
[13]
  GI50: 20.8 µM (inactive)
[14]
  GI50: 25.4 µM (inactive)
[15]
  GI50: 19.1 µM (inactive)
[16]
  GI50: 11.1 µM (inactive)
[20]
  GI50: 14.7 µM (inactive)
[17]
  GI50: 18.5 µM (inactive)

## Cc1ncc(CSC(=N)N)n1Cc1ccccc1
[1]
  GI50: 88.3 µM (inactive)
[3]
  GI50: > 100 µM (inactive)
[19]
  GI50: > 100 µM (inactive)
[5]
  GI50: > 100 µM (inactive)
[6]
  GI50: > 100 µM (inactive)
[7]
  GI50: 51.6 µM (inactive)
[8]
  GI50: 7.78 µM (inactive)
[10]
  GI50: 63.7 µM (inactive)
[11]
  GI50: > 100 µM (inactive)
[12]
  GI50: 96.8 µM (inactive)
[13]
  GI50: > 100 µM (inactive)
[15]
  GI50: 43.5 µM (inactive)
[16]
  GI50: 45.5 µM (inactive)
[20]
  GI50: > 100 µM (inactive)
[17]
  GI50: > 100 µM (inactive)
[18]
  GI50: 24.7 µM (inactive)

## O=C(/C=C/c1ccc(Cl)cc1)c1ccc(Cl)c(Cl)c1
[1]
  GI50: 34.6 µM (inactive)
[2]
  GI50: 30.3 µM (inactive)
[3]
  GI50: 17.3 µM (inactive)
[4]
  GI50: 20.5 µM (inactive)
[5]
  GI50: > 10 µM (inactive)
[7]
  GI50: 21.7 µM (inactive)
[8]
  GI50: 15.5 µM (inactive)
[9]
  GI50: 16.2 µM (inactive)
[10]
  GI50: 35.2 µM (inactive)
[11]
  GI50: 23.7 µM (inactive)
[12]
  GI50: 26.4 µM (inactive)
[13]
  GI50: 11.2 µM (inactive)
[14]
  GI50: 15.2 µM (inactive)
[15]
  GI50: 9.1 µM (inactive)
[16]
  GI50: 5.41 µM (inactive)
[20]
  GI50: > 10 µM (inactive)
[17]
  GI50: 20.6 µM (inactive)
[18]
  GI50: 18.8 µM (inactive)

## COC1(C)Cc2c(c(C)c(O)c3c2C(=O)C=C(Cl)C3=O)O1 (stereo not drawn)
[1]
  GI50: > 100 µM (inactive)
[2]
  GI50: > 100 µM (inactive)
[3]
  GI50: 39.7 µM (inactive)
[4]
  GI50: 7.5 µM (inactive)
[5]
  GI50: > 100 µM (inactive)
[6]
  GI50: > 100 µM (inactive)
[7]
  GI50: 44.2 µM (inactive)
[8]
  GI50: 16 µM (inactive)
[9]
  GI50: 3.39 µM (inactive)
[10]
  GI50: > 100 µM (inactive)
[11]
  GI50: 35.8 µM (inactive)
[12]
  GI50: > 100 µM (inactive)
[13]
  GI50: > 75.5 µM (inactive)
[14]
  GI50: 44.8 µM (inactive)
[15]
  GI50: > 65.6 µM (inactive)
[16]
  GI50: 19.8 µM (inactive)
[20]
  GI50: 18.9 µM (inactive)
[17]
  GI50: 40.2 µM (inactive)
[18]
  GI50: 16.9 µM (inactive)

From ChEMBL document CHEMBL1201862, “PubChem BioAssay data set” (2004)
